{"source": "patent US20020183383A1", "about": "“Pharmaceutical compositions” (priority 2001, published 2002)", "key": {"[1]": {"test_system": "subjects with primary hypercholesterolemia", "assay": "Multicenter, double-blind, placebo-controlled, parallel study of lipid (LDL-C, TC, HDL-C, TG) lowering efficacy of once-daily pravastatin 40-160 mg", "assay_type": "in vivo, human", "details": "for HDL-C % Δ, adjusted percent change from baseline (ANCOVA) / LDL-C (calculated) % Δ, adjusted percent change from baseline (ANCOVA) / TC % Δ, adjusted percent change from baseline (ANCOVA) / TG % Δ, adjusted percent change from baseline (ANCOVA) / increase in HDL-C / mean reduction in TC / mean reduction in TG: Week 6; for mean reduction in LDL-C: 6 weeks of treatment", "method": "A Multicenter, Double-Blind, Placebo-Controlled, Parallel Study to Determine the LDL-C Lowering Efficacy of Pravastatin Administered Once Daily Over the Dosage Range of 40 mg Through 160 mg.\n(§1) Objectives: The primary objective of this study was to evaluate the dose-related cholesterol (LDL-C) lowering efficacy of pravastatin 40 mg, 80 mg and 160 mg after 6 weeks of once-daily oral administration in subjects with primary hypercholesterolemia. Secondary objectives were: 1) to evaluate the dose-related changes in serum total cholesterol (TC), high-density lipoprotein cholesterol (HDL-C), and triglycerides (TG) concentrations after 6 weeks of once-daily oral administration of pravastatin 40 mg, 80 mg and 160 mg in subjects with primary hypercholesterolemia; 2) to estimate the dose-related changes in serum LDL-C, TC, HDL-C, and TG concentrations after 2 weeks and 4 weeks of once-daily oral administration of pravastatin 40 mg, 80 mg and 160 mg in subjects with primary hypercholesterolemia; and 3) to ascertain the safety and tolerability of the treatment regimens after 6 weeks of once-daily oral administration of pravastatin 40 mg, 80 mg and 160 mg in subjects with primary hypercholesterolemia.\nDuration of Treatment: 6 weeks\n(§2) Study Design and Methodology: This study was a multicenter, randomized, double-blind placebo-controlled, parallel design trial to determine the LDL-C lowering efficacy of pravastatin over a dose range of 40-160 mg in subjects with primary hypercholesterolemia. After at least 2 weeks of dietary stabilization and discontinuation of any previous lipid-lowering agents for a minimum of 4 weeks, subjects entered into a 4-week single-blind placebo lead-in period. At the end of the placebo lead-in period, subjects with mean serum LDL-C≧160 mg/dL and mean serum TG≦500 mg/dL were randomized (1:1:1:1) to one of four treatment groups: pravastatin 40 mg, pravastatin 80 mg, pravastatin 160 mg or placebo. Blinded treatment was administered once-daily at bedtime for 6 weeks.\nNumber of Subjects: 190 randomized; 189 received randomized study drug, 184 completed the study.\nDiagnosis and Main Criteria for Inclusion: Consenting men, or postmenopausal and surgically sterile women, aged 18 through 65 years were eligible to enroll in the study if they met the following criteria: 1) mean serum LDL-C≧160 mg/dL (the LDL-C concentration of the lower qualifying specimen were to be within 15% of the higher qualifying specimen) and 2) mean serum TG≦500 mg/dL obtained from two consecutive qualifying specimens.\nTest Product, dose, mode of administration: pravastatin, 40 mg tablets, oral\nPrimary Efficacy Outcome Measure:\nChange from baseline in calculated serum LDL-C at Week 6 of double-blind treatment.\nSecondary Efficacy Outcome Measures:\nChange from baseline in serum LDL-C at Weeks 2 and 4 of double blind treatment.\nChange from baseline in serum TC, HDL-C, and TG at Weeks 2,4, and 6 of double-blind treatment.\nAnalyses of covariance with terms for treatment and baseline.\nA contrast of the dose groups from the analysis of covariance model."}, "[2]": {"test_system": "subjects with primary hypercholesterolemia", "assay": "Safety and tolerability in the same 6-week clinical study (adverse events, laboratory analyses)", "assay_type": "in vivo, human", "method": "as §1, §2\nMedical history, physical examinations, laboratory analyses, and clinical adverse events (AEs)."}, "[3]": {"details": "pravastatin 40 mg once daily, Week 6, N=45"}, "[4]": {"details": "pravastatin 80 mg once daily, Week 6, N=48"}, "[5]": {"details": "pravastatin 160 mg once daily, Week 6, N=48"}, "[6]": {"details": "pravastatin 40 mg once daily, 6 weeks, N=46"}, "[7]": {"details": "pravastatin 80 mg once daily, 6 weeks, N=49"}, "[8]": {"details": "pravastatin 160 mg once daily, 6 weeks, N=48"}}, "data": [{"smiles": "CC[C@H](C)C(=O)O[C@H]1C[C@H](O)C=C2C=C[C@H](C)[C@H](CC[C@@H](O)C[C@@H](O)CC(=O)O)[C@H]21", "note": "[Pravastatin, Pravastatin sodium]", "values": [{"measurement": "absolute reduction in LDL cholesterol as the dose was doubled", "setting": "[1]; dose doubled from 40 mg to 80 mg, and again from 80 mg to 160 mg", "result": "greater than 6%"}, {"measurement": "additional LDL-C lowering with every doubling of the dose", "setting": "[1]; doses of 40-160 mg once daily, 6 weeks", "result": 8, "unit": "%"}, {"measurement": "LDL-C (calculated) Week 6 Mean", "setting": "[1]; pravastatin 40 mg once daily oral at bedtime, Week 6, N=45", "result": 139.0, "unit": "mg/dL"}, {"measurement": "HDL-C % Δ, adjusted percent change from baseline (ANCOVA)", "setting": "[1]; pravastatin 40 mg once daily", "result": 11.4, "unit": "%"}, {"measurement": "LDL-C (calculated) % Δ, adjusted percent change from baseline (ANCOVA)", "setting": "[1]; pravastatin 40 mg once daily", "result": "−28.6", "unit": "%"}, {"measurement": "TC % Δ, adjusted percent change from baseline (ANCOVA)", "setting": "[1]; pravastatin 40 mg once daily", "result": "−20.0", "unit": "%"}, {"measurement": "TG % Δ, adjusted percent change from baseline (ANCOVA)", "setting": "[1]; pravastatin 40 mg once daily", "result": "−15.8", "unit": "%"}, {"measurement": "HDL-C Week 6 Mean", "setting": "[1]; [3]", "result": 52.8, "unit": "mg/dL"}, {"measurement": "TC Week 6 Mean", "setting": "[1]; [3]", "result": 219.8, "unit": "mg/dL"}, {"measurement": "TG Week 6 Mean", "setting": "[1]; [3]", "result": 140.9, "unit": "mg/dL"}, {"measurement": "mean reduction in LDL-C", "setting": "[1]; pravastatin 40 mg", "result": 29, "unit": "%"}, {"measurement": "increase in HDL-C", "setting": "[1]; pravastatin 40 mg", "result": 11.4, "unit": "%"}, {"measurement": "mean reduction in TC", "setting": "[1]; pravastatin 40 mg", "result": 20, "unit": "%"}, {"measurement": "mean reduction in TG", "setting": "[1]; pravastatin 40 mg", "result": 16, "unit": "%"}, {"measurement": "LDL-C (calculated) Week 6 Mean", "setting": "[1]; pravastatin 80 mg once daily oral at bedtime, Week 6, N=48", "result": 124.7, "unit": "mg/dL"}, {"measurement": "HDL-C % Δ, adjusted percent change from baseline (ANCOVA)", "setting": "[1]; pravastatin 80 mg once daily", "result": 8.4, "unit": "%"}, {"measurement": "LDL-C (calculated) % Δ, adjusted percent change from baseline (ANCOVA)", "setting": "[1]; pravastatin 80 mg once daily", "result": "−36.7", "unit": "%"}, {"measurement": "TC % Δ, adjusted percent change from baseline (ANCOVA)", "setting": "[1]; pravastatin 80 mg once daily", "result": "−26.3", "unit": "%"}, {"measurement": "TG % Δ, adjusted percent change from baseline (ANCOVA)", "setting": "[1]; pravastatin 80 mg once daily", "result": "−14.2", "unit": "%"}, {"measurement": "HDL-C Week 6 Mean", "setting": "[1]; [4]", "result": 45.0, "unit": "mg/dL"}, {"measurement": "TC Week 6 Mean", "setting": "[1]; [4]", "result": 201.6, "unit": "mg/dL"}, {"measurement": "TG Week 6 Mean", "setting": "[1]; [4]", "result": 158.8, "unit": "mg/dL"}, {"measurement": "mean reduction in LDL-C", "setting": "[1]; pravastatin 80 mg", "result": 37, "unit": "%"}, {"measurement": "increase in HDL-C", "setting": "[1]; pravastatin 80 mg", "result": 8.4, "unit": "%"}, {"measurement": "mean reduction in TC", "setting": "[1]; pravastatin 80 mg", "result": 26, "unit": "%"}, {"measurement": "mean reduction in TG", "setting": "[1]; pravastatin 80 mg", "result": 14, "unit": "%"}, {"measurement": "LDL-C (calculated) Week 6 Mean", "setting": "[1]; pravastatin 160 mg once daily oral at bedtime, Week 6, N=47", "result": 108.4, "unit": "mg/dL"}, {"measurement": "HDL-C % Δ, adjusted percent change from baseline (ANCOVA)", "setting": "[1]; pravastatin 160 mg once daily", "result": 9.6, "unit": "%"}, {"measurement": "LDL-C (calculated) % Δ, adjusted percent change from baseline (ANCOVA)", "setting": "[1]; pravastatin 160 mg once daily", "result": "−45.2", "unit": "%"}, {"measurement": "TC % Δ, adjusted percent change from baseline (ANCOVA)", "setting": "[1]; pravastatin 160 mg once daily", "result": "−34.2", "unit": "%"}, {"measurement": "TG % Δ, adjusted percent change from baseline (ANCOVA)", "setting": "[1]; pravastatin 160 mg once daily", "result": "−26.9", "unit": "%"}, {"measurement": "HDL-C Week 6 Mean", "setting": "[1]; [5]", "result": 46.4, "unit": "mg/dL"}, {"measurement": "TC Week 6 Mean", "setting": "[1]; [5]", "result": 181.3, "unit": "mg/dL"}, {"measurement": "TG Week 6 Mean", "setting": "[1]; [5]", "result": 132.0, "unit": "mg/dL"}, {"measurement": "mean reduction in LDL-C", "setting": "[1]; pravastatin 160 mg", "result": 45, "unit": "%"}, {"measurement": "increase in HDL-C", "setting": "[1]; pravastatin 160 mg", "result": 9.6, "unit": "%"}, {"measurement": "mean reduction in TC", "setting": "[1]; pravastatin 160 mg", "result": 34, "unit": "%"}, {"measurement": "mean reduction in TG", "setting": "[1]; pravastatin 160 mg", "result": 27, "unit": "%"}, {"measurement": "subjects with CK elevation >4×ULN", "setting": "[2]; 40 mg pravastatin (one subject)", "result": 2.2, "unit": "%"}, {"measurement": "subjects discontinued due to gastrointestinal events considered possibly related to study drug", "setting": "[2]; 160 mg pravastatin treatment group (two subjects)", "result": 1.4, "unit": "%"}, {"measurement": "tolerability / safety in words", "setting": "[2]; 40, 80 and 160 mg once daily for 6 weeks", "result": "appears safe and well tolerated"}, {"measurement": "deaths or serious adverse events in the study", "setting": "[2]; all treatment groups, 6 weeks", "result": "no deaths or serious adverse events"}, {"measurement": "marked abnormalities (MAs) for ALT and AST", "setting": "[2]; all treatment groups, 6 weeks", "result": "No marked abnormalities"}, {"measurement": "Number of randomized subjects with ADE (adverse drug experience), n (%)", "setting": "[2]; [6]", "result": "5 (10.9%)"}, {"measurement": "Number of randomized subjects with AE (total), n (%)", "setting": "[2]; [6]", "result": "19 (43%)"}, {"measurement": "Number of randomized subjects with Discontinuations, n (%)", "setting": "[2]; [6]", "result": 0}, {"measurement": "Number of randomized subjects with SAE (serious adverse event)", "setting": "[2]; [6]", "result": 0}, {"measurement": "Number of randomized subjects with ADE (adverse drug experience), n (%)", "setting": "[2]; [7]", "result": "14 (28.6%)"}, {"measurement": "Number of randomized subjects with AE (total), n (%)", "setting": "[2]; [7]", "result": "24 (49.0%)"}, {"measurement": "Number of randomized subjects with Discontinuations, n (%)", "setting": "[2]; [7]", "result": 0}, {"measurement": "Number of randomized subjects with SAE (serious adverse event)", "setting": "[2]; [7]", "result": 0}, {"measurement": "frequency of adverse events by body system", "setting": "[2]; pravastatin 160 mg dose", "result": "higher frequency of adverse events in the gastrointestinal and respiratory body systems"}, {"measurement": "Number of randomized subjects with ADE (adverse drug experience), n (%)", "setting": "[2]; [8]", "result": "17 (35.4%)"}, {"measurement": "Number of randomized subjects with AE (total), n (%)", "setting": "[2]; [8]", "result": "29 (60.4%)"}, {"measurement": "Number of randomized subjects with Discontinuations, n (%)", "setting": "[2]; [8]", "result": "2 (1.4%)"}, {"measurement": "Number of randomized subjects with SAE (serious adverse event)", "setting": "[2]; [8]", "result": 0}]}]}
